Holding throughout (assay): NCI tumour cell line growth inhibition, 48 h
Experiment [1] relates to NCI-H23 lung.
In experiment [2] the test system is A498 renal.
Experiment [3] relates to SK-MEL-28 melanoma.
In experiment [4] the test system is NCI-H226 lung.
Experiment [5] has as its system RXF 393 renal.
The test system of experiment [6] is T-47D breast.
For experiment [7], the system named is UO-31 renal.
For experiment [8], the system named is LOX IMVI melanoma.
For experiment [9], the system named is MOLT-4 leukemia.
Experiment [10] has as its system CCRF-CEM leukemia.

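Briefly, cells in 96-well plates were exposed to five compound concentrations for 48 h, and endpoints were estimated by linear interpolation. GI50 marks 50% less growth. TGI marks complete inhibition of growth.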

As for `Oc1cc(O)c2c(c1)OC(c1ccc(O)c(O)c1)C(O)C2c1c(O)cc(O)c2c1OC(c1ccc(O)c(O)c1)C(O)C2` (stereo not given), the TGI in experiment [1], in [2], in experiment [3], in experiment [4], in [5] and in experiment [6] was more than 100 µM throughout. Besides, the TGI in [7] and in experiment [8] was more than 100 µM in each case.

For the molecule `COc1cc(NCCC2CCCCN2)c2ncccc2c1OC` (stereo not given), the GI50 in [1] is 7.09 µM; in experiment [2], 22.6 µM; in experiment [3], 11.7 µM; in experiment [4], 23.5 µM; in experiment [5] it was 22.8 µM; in experiment [6] it was 2.91 µM. In addition, the results for the GI50 in experiment [7] and in experiment [8] were 14.9 µM and 1.95 µM, respectively. For the same molecule, the TGI in experiment [1] stood at 31.3 µM; in experiment [2], 41.8 µM; in experiment [3], 24.8 µM; in experiment [4], 46.8 µM; in experiment [5], 38.5 µM; in experiment [6] it was 14.4 µM. In addition, the TGI in [7] turned out to be 36.7 µM; in [8] it was 5.49 µM.

In the case of `CCc1ccccc1NC(=O)C(=O)C(C#N)c1c(Cl)cccc1Cl` (stereo not given), the TGI in experiment [1], in experiment [3], in [4], in experiment [7], in experiment [9] and in experiment [10] was more than 100 µM each time. Further, in experiment [8], the TGI is more than 100 µM.

In the case of `O=C(O)CCSC(=O)Nc1ccccc1`, the TGI in experiment [1], in [2], in [3], in experiment [4], in experiment [5] and in experiment [7] was more than 100 µM throughout. Further, the TGI in experiment [9], in experiment [10] and in experiment [8] was more than 100 µM in each case.

For `O=C1CCc2ccc(O)c(c2)Oc2ccc(cc2)[C@@H]2O[C@@H]2CO1`, the TGI in experiment [1] was more than 100 µM; in [2] it was 70.7 µM; in experiment [3], more than 100 µM; in experiment [4], more than 100 µM; in experiment [7], more than 100 µM; in experiment [9], more than 100 µM. For the same molecule, the TGI in [10] and in experiment [8] was more than 100 µM each time.

Regarding `Cc1ccc(NC(=O)CCC(=O)C2Cc3ccccc3C2=O)cc1C` (stereo not given), the TGI in experiment [1], in [2], in [3], in [4], in [5] and in experiment [7] was more than 100 µM throughout. The TGI in experiment [9], in [10] and in experiment [8] was more than 100 µM in each case.

Consider `COc1ccc(C(Nc2ccccn2)c2cc(C(C)(C)C)cc(C(C)(C)C)c2O)cc1` (stereo not given), for which the TGI in [1] was 51.2 µM; in [2], more than 100 µM; in experiment [3], more than 100 µM; in experiment [4], 47.9 µM; in experiment [5], 38.6 µM; in experiment [6] it was 76.4 µM. Besides, the TGI in experiment [7] is more than 100 µM; in experiment [8], 35.8 µM.

Consider `C=CCC1C(=O)CC2(C)C(CC=C)C(=O)CC12C` (stereo not given), for which the TGI in experiment [1], in experiment [3], in experiment [4], in experiment [7], in experiment [9] and in [10] was more than 100 µM throughout. The same molecule had a TGI in experiment [8] of more than 100 µM.

Take `CC(=O)O[C@H]1CC[C@]2(C)C3C(=O)C[C@]4(C)[C@@H](C(C)CCC(=O)O)CC[C@@]4(C)[C@@H]3CC[C@H]2C1(C)C` (stereo not given in full): the GI50 in experiment [1] was 19.1 µM; in experiment [2] it was 22.2 µM; in experiment [3], 28.6 µM; in [4], more than 50 µM; in experiment [5], 15.5 µM; in experiment [7], 40.7 µM. The GI50 in experiment [9] was more than 50 µM; in experiment [8] it was 7.64 µM. Besides, the TGI in experiment [1], in [2], in experiment [3], in [4], in experiment [5] and in [7] was more than 50 µM throughout. Moreover, the TGI was more than 50 µM in experiment [9] and 20.7 µM in experiment [8].

Turning to `O=C(Nc1ccc(Cl)cc1)N1CCN(c2ccc3nncn3n2)CC1`, the GI50 was 42.3 µM in experiment [1]; 11.2 µM in [2]; more than 100 µM in experiment [3]; 68.4 µM in experiment [4]; more than 100 µM in experiment [5]; 29.4 µM in experiment [6]. For the same molecule, the GI50 in experiment [7] is 24.9 µM; in experiment [9], 23.8 µM; in experiment [8] it was 92.4 µM. Further, the TGI in experiment [1] is more than 100 µM; in [2], 96.6 µM; in [3], more than 100 µM; in [4], more than 100 µM; in experiment [5] it was more than 100 µM; in [6], more than 100 µM. Besides, the TGI in experiment [7] was more than 100 µM; in experiment [9], 69.6 µM; in experiment [8], more than 100 µM.

`CCCCNCCCCCNc1cc(OC)cc2cccnc12`: the GI50 in [1] is 15.9 µM; in [2], 16.2 µM; in experiment [4], 23.8 µM; in experiment [5] it was 12.3 µM; in experiment [7], 13.4 µM; in [9], 18 µM. In addition, the GI50 in [10] was 28.1 µM; in experiment [8] it was 34.8 µM. For the same molecule, the TGI is 31.7 µM in [1]; 38 µM in experiment [2]; 64.5 µM in experiment [4]; 27.9 µM in experiment [5]; 27.2 µM in experiment [7]; 41.1 µM in experiment [9]. Also, the figures for the TGI in experiment [10] and in experiment [8] were 74.2 µM and more than 100 µM, respectively.

Turning to `O=C(OCc1ccccc1)n1cccc1`, the TGI in [1], in [2], in experiment [3], in experiment [4], in experiment [5] and in experiment [7] was more than 100 µM each time. The TGI in [9], in [10] and in experiment [8] was more than 100 µM throughout.

For `N#CC1=C(c2ccccc2)OC2(N)OC(c3ccccc3)=C(C#N)C12C#N` (stereo not given), the TGI in experiment [1], in experiment [2], in [3], in experiment [5], in [7] and in experiment [9] was more than 100 µM each time. Further, the TGI in experiment [10] and in [8] was more than 100 µM each time.

Turning to `CCOC(=O)c1cc(C(=O)c2cc(OC)c(OC)c(OC)c2)n2ccc(-c3cc[n+](CC(=O)c4cc(OC)c(OC)c(OC)c4)cc3)cc12`, the GI50 in experiment [2] was 1.96 µM; in experiment [3], 1.75 µM; in [4] it was 2.37 µM; in experiment [5], 1.66 µM; in experiment [6] it was 1.94 µM; in experiment [7] it was 7.97 µM. In addition, the TGI was 3.85 µM in experiment [2]; 3.6 µM in [3]; 6.62 µM in experiment [4]; 3.48 µM in experiment [5]; 4.85 µM in experiment [6]; 26.5 µM in experiment [7].

Turning to `CC(=O)[CH-]C(=O)c1ccccc1.CC(=O)[CH-]C(=O)c1ccccc1.CC(=O)[CH-]C(=O)c1ccccc1.[Br-].[Zr+4]`, the GI50 in experiment [1] was more than 100 µM; in experiment [2], 24.9 µM; in experiment [3] it was 55.3 µM; in experiment [5], more than 100 µM; in experiment [9], 47.2 µM; in [10] it was 22.3 µM. Besides, in experiment [8], the GI50 is 89.7 µM. Also, the TGI in [1], in experiment [2], in [3], in experiment [5], in experiment [9] and in experiment [10] was more than 100 µM each time. Besides, in experiment [8], the TGI is more than 100 µM.

For the molecule `FC(F)(F)c1nc(Br)[nH]c1C(F)(F)F`, the TGI in experiment [1], in experiment [3], in experiment [4], in experiment [5], in experiment [7] and in experiment [9] was more than 100 µM each time. Further, the TGI in [10] and in experiment [8] was more than 100 µM throughout.

For the molecule `CCOC(=O)CCn1cnc(N)n1`, the TGI in [1], in experiment [3], in [4], in experiment [5], in [7] and in experiment [9] was more than 100 µM in each case. Further, the TGI in experiment [10] and in [8] was more than 100 µM in each case.

As to `CNC(=O)NCCN1N=C(C)/C(=C\c2ccccc2)CC1=O`, the TGI in [1], in experiment [2], in experiment [3], in experiment [4], in [5] and in experiment [7] was more than 100 µM in each case. Also, the TGI in experiment [9], in experiment [10] and in experiment [8] was more than 100 µM each time.

For `CSc1cc(C(C)(C)C)ccc1C(O)c1ccc(C(C)(C)C)cc1SC`, the TGI in experiment [1] is 29.8 µM; in experiment [2], 26.7 µM; in [3], 39.3 µM; in [4], 27 µM; in experiment [5], 24.9 µM; in [7], 18.6 µM. Further, the TGI in experiment [9] came out at 21.6 µM; in experiment [10] it was 35.8 µM; in experiment [8], 24.3 µM.

As for `CC(C)(C)OC1=C(OC(C)(C)C)C(O)(c2ccc(Cl)cc2)C1=O` (stereo not given), the TGI in experiment [1], in experiment [2], in experiment [3], in [5], in [7] and in [9] was more than 100 µM each time. In addition, the TGI in experiment [10] and in [8] was more than 100 µM throughout.

`Cc1ccc2c(c1)C(O)(c1ccccc1)CCS2` (stereo not given): the TGI in experiment [1] is 89.9 µM; in [3] it was more than 100 µM; in [4], 82.4 µM; in [5], more than 100 µM; in [6], more than 100 µM; in [7], 48.7 µM. Further, the results for the TGI in [9] and in [8] were 44.7 µM and 36 µM, respectively.

As to `CC(=N/NC(N)=S)/C(C)=N/NC(N)=S`, the TGI in [1], in experiment [3], in experiment [4], in experiment [5], in experiment [7] and in experiment [9] was more than 100 µM each time. The TGI in experiment [10] and in experiment [8] was more than 100 µM throughout.

Regarding `N#CC(C#N)=C1CCC2C(=C(C#N)C#N)CCC12` (stereo not given), the TGI in experiment [1], in experiment [2], in experiment [4], in experiment [5], in [7] and in [9] was more than 100 µM each time. The TGI in experiment [10] and in experiment [8] was more than 100 µM in each case.

On to `CCN(CC)CCCNc1cc(OC)c(OC)c2cccnc12`, for which the GI50 in [1] is 1.85 µM; in experiment [2] it was 18.6 µM; in experiment [3], 15.7 µM; in [4], 15.2 µM; in [5], 19.1 µM; in experiment [6] it was 16.4 µM. The GI50 in [7] was 14.1 µM; in experiment [9], 3.27 µM; in experiment [8], 2.22 µM. The TGI in experiment [1] was 26.1 µM; in experiment [2], 42 µM; in experiment [3], 32.9 µM; in experiment [4], 37.7 µM; in experiment [5], 34.3 µM; in experiment [6], 42 µM. The figures for the TGI in [7], in [9] and in [8] were more than 100 µM, 8.88 µM and 34.4 µM, respectively.

On to `CC(=N\O)/C(C)=N/O.CC(=N\O)/C(C)=N/O.[Fe].[NH2-].c1c[nH]cn1`, for which the GI50 in experiment [2] is more than 100 µM; in [3], more than 100 µM; in experiment [4], more than 100 µM; in experiment [5] it was more than 100 µM; in experiment [6], more than 100 µM; in experiment [7], 1.43 µM. Also, the figures for the GI50 in experiment [9] and in experiment [8] were more than 100 µM and 3.17 µM, respectively. Moreover, the TGI was more than 100 µM in experiment [2]; more than 100 µM in [3]; more than 100 µM in experiment [4]; more than 100 µM in experiment [5]; more than 100 µM in experiment [6]; 4.34 µM in [7]. Besides, the TGI in experiment [9] was more than 100 µM; in experiment [8] it was 13.2 µM.

These data come from PubChem BioAssay (NCI).
